Test results: publication PMC11859928, “Design, Synthesis, and Antiproliferative Activity of Novel Indole/1,2,4-Triazole Hybrids as Tubulin Polymerization Inhibitors” (Pharmaceuticals, 2025)
Like-named read-outs stand apart in the source and are kept apart here.

Key:
[1] = test system: NCI-H23; experiment: NCI five-dose assay; format: cell-based, human; conditions: NCI-H23, Non-small cell lung cancer
[2] = test system: Renal cancer subpanel; experiment: NCI five-dose assay, subpanel mean; format: cell-based, human
[3] = test system: DU-145; experiment: NCI five-dose assay; format: cell-based, human; conditions: DU-145, Prostate cancer
[4] = test system: A549/ATCC; experiment: NCI five-dose assay; format: cell-based, human; conditions: Non-small cell lung cancer
[5] = test system: Melanoma subpanel; experiment: NCI five-dose assay, subpanel mean; format: cell-based, human
[6] = test system: CAKI-1; experiment: NCI five-dose assay; format: cell-based, human; conditions: CAKI-1, Renal cancer
[7] = test system: K-562; experiment: NCI five-dose assay; format: cell-based, human; conditions: K-562, Leukemia
[8] = test system: NCI-H322M; experiment: NCI five-dose assay; format: cell-based, human; conditions: Non-small cell lung cancer
[9] = test system: SR; experiment: NCI five-dose assay; format: cell-based, human; conditions: Leukemia
[10] = test system: panel of 60 human tumor cell lines; experiment: NCI five-dose assay, full panel; format: cell-based
[11] = test system: Colon cancer subpanel; experiment: NCI five-dose assay, subpanel mean; format: cell-based, human
[12] = test system: OVCAR-8; experiment: NCI five-dose assay; format: cell-based, human; conditions: OVCAR-8, Ovarian cancer
[13] = test system: OVCAR-5; experiment: NCI five-dose assay; format: cell-based, human; conditions: OVCAR-5, Ovarian cancer
[14] = test system: KM12; experiment: NCI five-dose assay; format: cell-based, human; conditions: KM12, Colon cancer
[15] = test system: COLO205; experiment: NCI five-dose assay; format: cell-based, human; conditions: COLO205, Colon cancer
[16] = test system: M14; experiment: NCI five-dose assay; format: cell-based, human; conditions: M14, Melanoma
[17] = test system: NCI-H226; experiment: NCI five-dose assay; format: cell-based, human; conditions: NCI-H226, Non-small cell lung cancer
[18] = test system: Ovarian cancer subpanel; experiment: NCI five-dose assay, subpanel mean; format: cell-based, human
[19] = test system: A498; experiment: NCI five-dose assay; format: cell-based, human; conditions: A498, Renal cancer
[20] = test system: SF-295; experiment: NCI five-dose assay; format: cell-based, human; conditions: SF-295, CNS cancer
[21] = test system: OVCAR-3; experiment: NCI five-dose assay; format: cell-based, human; conditions: OVCAR-3, Ovarian cancer
[22] = test system: SK-MEL-2; experiment: NCI five-dose assay; format: cell-based, human; conditions: SK-MEL-2, Melanoma
[23] = test system: HOP-62; experiment: NCI five-dose assay; format: cell-based, human; conditions: HOP-62, Non-small cell lung cancer
[24] = test system: OVCAR-4; experiment: NCI five-dose assay; format: cell-based, human; conditions: OVCAR-4, Ovarian cancer
[25] = test system: IGROV1; experiment: NCI five-dose assay; format: cell-based, human; conditions: IGROV1, Ovarian cancer
[26] = test system: MDA-MB-435; experiment: NCI five-dose assay; format: cell-based, human; conditions: MDA-MB-435, Melanoma
[27] = test system: TK-10; experiment: NCI five-dose assay; format: cell-based, human; conditions: TK-10, Renal cancer
[28] = Homo sapiens, 48 h, read-out: LC50 (the source's name)
[29] = Homo sapiens, read-out: GI50 Conc. per Cell Lines

`Cc1ccc(C(=O)CSc2nnc(-c3c[nH]c4ccccc34)n2-c2ccccc2)cc1` [Compound 6h, 2-((5-(1H-Indol-3-yl)-4-phenyl-4H-1,2,4-triazol-3-yl)thio)-1-(p-tolyl)ethenone] was tested, and the CC50 [1, 28] was 54.9 µM, the GI50 [1, 29] was 13.7 µM and the “TGI Conc. per Cell Lines” value [1] was 27.50 µM. The GI50 ([2]; Homo sapiens, average sensitivity of all cell lines of the Renal cancer subpanel, read-out: GI50 Subpanel MID b) was 17 µM, the “GI50 Selectivity Ratio (MID a/MID b)” value ([2]; Renal cancer subpanel) was 1.13 and the “TGI Conc. per Cell Lines” value [3] was >100 µM. For the same compound, the CC50 [3, 28] was > 100 µM, the GI50 [3, 29] was 4.43 µM and the CC50 [4, 28] was > 100 µM. The GI50 [4, 29] was 13.9 µM, the “TGI Conc. per Cell Lines” value [4] was 48.50 µM and the GI50 ([5]; Homo sapiens, average sensitivity of all cell lines of the Melanoma subpanel, read-out: GI50 Subpanel MID b) was 21.8 µM. The “GI50 Selectivity Ratio (MID a/MID b)” value ([5]; Melanoma subpanel) was 0.88, the “TGI Conc. per Cell Lines” value [6] was 29.80 µM and the LC50 ([6]; Homo sapiens, 48 h) was 59.4 µM. The GI50 [6, 29] was 14.9 µM, the CC50 ([7]; Homo sapiens, K562, 48 h, read-out: LC50 (the source's name)) was > 100 µM and the GI50 ([7]; Homo sapiens, K562, read-out: GI50 Conc. per Cell Lines) was 22.1 µM. For the same compound, the “TGI Conc. per Cell Lines” value [7] was “˃100 µM”, the CC50 [8, 28] was > 100 µM and the GI50 [8, 29] was 16.3 µM. The “TGI Conc. per Cell Lines” value [8] was 55.50 µM, the CC50 [9, 28] was > 100 µM and the GI50 [9, 29] was 42 µM. The “TGI Conc. per Cell Lines” value [9] was “˃100 µM”, the GI50 ([10]; average sensitivity of all cell lines, read-out: GI50 MID a) was 19.3 µM and the GI50 ([10]; most of the tested cell lines across nine subpanels, read-out: GI50 values, range across nine subpanels) was 8.42 to 33.5 µM. For the same compound, the “GI50 Selectivity Ratio (MID a/MID b)” value ([11]; Colon cancer subpanel) was 0.76, the GI50 ([11]; Homo sapiens, average sensitivity of all cell lines of the Colon cancer subpanel, read-out: GI50 Subpanel MID b) was 25.4 µM and the CC50 [12, 28] was > 100 µM. The GI50 [12, 29] was 24.5 µM, the “TGI Conc. per Cell Lines” value [12] was “˃100 µM” and the LC50 ([13]; Homo sapiens, 48 h) was 71.5 µM. For the same compound, the GI50 [13, 29] was 19.4 µM, the “TGI Conc. per Cell Lines” value [13] was 37.20 µM and the CC50 [14, 28] was > 100 µM. For the same compound, the GI50 [14, 29] was 36.1 µM, the “TGI Conc. per Cell Lines” value [14] was >100 µM and the “TGI Conc. per Cell Lines” value [15] was >100 µM. For the same compound, the CC50 ([15]; Homo sapiens, COLO 205, 48 h, read-out: LC50 (the source's name)) was > 100 µM, the GI50 ([15]; Homo sapiens, COLO 205, read-out: GI50 Conc. per Cell Lines) was 34.4 µM and the CC50 [16, 28] was > 100 µM. For the same compound, the GI50 [16, 29] was 32.1 µM, the “TGI Conc. per Cell Lines” value [16] was >100 µM and the CC50 [17, 28] was 69.8 µM. For the same compound, the GI50 [17, 29] was 9.22 µM, the “TGI Conc. per Cell Lines” value [17] was 26.10 µM and the GI50 ([18]; Homo sapiens, average sensitivity of all cell lines of the Ovarian cancer subpanel, read-out: GI50 Subpanel MID b) was 17.4 µM. The “GI50 Selectivity Ratio (MID a/MID b)” value ([18]; Ovarian cancer subpanel) was 1.10, the “TGI Conc. per Cell Lines” value [19] was 69.40 µM and the LC50 ([19]; Homo sapiens, 48 h) was > 100 µM. The GI50 [19, 29] was 22.1 µM, the CC50 [20, 28] was 53.3 µM and the GI50 [20, 29] was 12.6 µM. For the same compound, the “TGI Conc. per Cell Lines” value [20] was 25.90 µM, the LC50 ([21]; Homo sapiens, 48 h) was > 100 µM and the GI50 [21, 29] was 18 µM. The “TGI Conc. per Cell Lines” value [21] was 43.20 µM, the CC50 [22, 28] was > 100 µM and the GI50 [22, 29] was 30.2 µM. For the same compound, the “TGI Conc. per Cell Lines” value [22] was >100 µM, the “TGI Conc. per Cell Lines” value [23] was 35.90 µM and the CC50 [23, 28] was 80 µM. The GI50 [23, 29] was 16.1 µM, the LC50 ([24]; Homo sapiens, 48 h) was > 100 µM and the GI50 [24, 29] was 14.5 µM. The “TGI Conc. per Cell Lines” value [24] was 41.50 µM, the CC50 ([25]; Homo sapiens, IGROV-1, 48 h, read-out: LC50 (the source's name)) was 61 µM and the GI50 ([25]; Homo sapiens, IGROV-1, read-out: GI50 Conc. per Cell Lines) was 16.1 µM. The “TGI Conc. per Cell Lines” value [25] was 31.30 µM, the CC50 [26, 28] was > 100 µM and the GI50 [26, 29] was 22.8 µM. For the same compound, the “TGI Conc. per Cell Lines” value [26] was 65.40 µM, the CC50 [27, 28] was 85 µM and the GI50 [27, 29] was 23.2 µM. For the same compound, the “TGI Conc. per Cell Lines” value [27] was 44.40 µM.
